Data set [1] concerns IMR-32 neuroblastoma cells. Nature of the data set: In vitro toxicity test (fluorimetric DNA assay, Hoechst). Type of data set: cell-based, human. The method, then: In vitro cytotoxicity testing of the peptides PRE 3, PRE 4 and PRE 5 (see Table 3) was conducted following the general protocol outlined below (modified from “Fluorimetric DNA assay for cell growth estimation” Rao J, Otto W., Analytical Biochem. 207:186-192, 1992).
The assay was performed in 96 well plates, with 3,000 IMR-32 neuroblastoma cells seeded per well and 8 replicas were performed per treatment. The cells were pre-treated with either plain medium and a pinocytic endocytosis reagent (Molecular Probes) or medium containing the PRE under evaluation and the pinocytic endocytosis reagent. The cells were allowed to grow under conventional conditions for 3 days. The DNA content of each well was assessed at 24, 48 and 72 hours using Hoechst reagent according to standard procedures. The fluorescence intensity per well was measured using the plate reader “CytoFluor 2350” from Millipore. Excitation was 360 nm and emission was 460 nm. The number of cells is directly correlated to the DNA content.
The results are shown in Tables 11-13 as the average relative fluorescence intensity measured for the 8 replica wells, as well as the percentage of survival as compared with matching untreated controls.

The next data set deals with T1, PKC-ι (Homo sapiens, UniProt P41743).
T1 construct: cytoplasmic extracts from different cell lines expressing appropriate PKC isoforms; endogenous in cells; host or cells: MDAMB231, LnCAP, H661, CCD16Lu, Du145, LS180 (human, from ATCC)
T1 sequence (P41743 1-596): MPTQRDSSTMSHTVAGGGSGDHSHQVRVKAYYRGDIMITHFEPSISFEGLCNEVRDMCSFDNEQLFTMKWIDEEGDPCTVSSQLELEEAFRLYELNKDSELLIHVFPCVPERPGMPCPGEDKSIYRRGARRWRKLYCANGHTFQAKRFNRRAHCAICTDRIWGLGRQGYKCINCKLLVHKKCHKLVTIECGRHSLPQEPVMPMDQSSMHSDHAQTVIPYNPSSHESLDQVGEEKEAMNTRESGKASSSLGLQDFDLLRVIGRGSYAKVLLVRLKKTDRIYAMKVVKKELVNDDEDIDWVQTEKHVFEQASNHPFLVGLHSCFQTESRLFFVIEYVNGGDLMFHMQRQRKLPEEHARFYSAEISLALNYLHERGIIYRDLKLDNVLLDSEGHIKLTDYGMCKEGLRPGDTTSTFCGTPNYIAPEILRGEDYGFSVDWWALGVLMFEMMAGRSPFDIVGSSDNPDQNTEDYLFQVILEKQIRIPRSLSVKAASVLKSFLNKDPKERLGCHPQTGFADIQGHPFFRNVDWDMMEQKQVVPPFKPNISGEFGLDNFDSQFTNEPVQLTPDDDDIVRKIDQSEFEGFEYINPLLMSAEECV
The data set can be described thus: Competitive binding assay using cell extracts (Western blot). The conditions noted are these: Cell extract; PRE at 10X, 20X antibody concentration; Table 20. The arrangement: key: —: no detectable affinity; Low to very low affinity at 10X or 20X or both PRE concentrations in at least one cell line in the cell extract assay; Low affinity in purified isoform assay.; Moderate affinity at 10X or 20X or both PRE concentrations in at least one cell line in the cell extract assay.; High affinity at 10X or 20X or both PRE concentrations in at least one cell line in the cell extract assay; High affinity in purified isoform assay. The method, then:
(§1) Binding efficiency and specificity of the peptides PRE 2, 3, 4, 5, 6, 7, 8, 9, 10, 11, 12 and 13 (see Table 3) was also tested using cytoplasmic extracts from different cell lines expressing appropriate PKC isoforms as described for Example 1. Briefly, the protein cytoplasmic extracts were separated by electrophoresis and transferred onto nitrocellulose membranes by standard Western blotting procedures. The bands on the Western blots were detected with matching primary antibodies and alkaline phosphatase conjugated secondary antibody. The bands were then scanned and the relative density measurements obtained.
(§2) This procedure to assess the binding characteristics of the PREs is based on competition binding of the PRE with the primary anti-isoform PKC specific antibodies. The lower the measured band density, the greater the binding of the PRE to the PKC isoform. The PREs were added at 10 and 20 times (10×, 20×) the primary antibody concentration, according to classical competition between antigenic peptide and primary antibody. The following cell lines (obtained from the ATCC) were used: H661—NCI human lung carcinoma NSCLC; MDAMB231—human highly invasive breast cancer cell line from pleural effusion; LS180—human colon adenocarcinoma; LnCAP—human prostate adenocarcinoma; CCD16Lu—human lung fibroblasts; Du145—human prostate carcinoma brain metastasis, and T24—human bladder carcinoma.
(§3) In these cases, the 20× band density figures relative to control and 10× values were reliable.

The next data set deals with T2, PKC-ζ (Homo sapiens, UniProt Q05513).
T2 sequence (Q05513 1-592): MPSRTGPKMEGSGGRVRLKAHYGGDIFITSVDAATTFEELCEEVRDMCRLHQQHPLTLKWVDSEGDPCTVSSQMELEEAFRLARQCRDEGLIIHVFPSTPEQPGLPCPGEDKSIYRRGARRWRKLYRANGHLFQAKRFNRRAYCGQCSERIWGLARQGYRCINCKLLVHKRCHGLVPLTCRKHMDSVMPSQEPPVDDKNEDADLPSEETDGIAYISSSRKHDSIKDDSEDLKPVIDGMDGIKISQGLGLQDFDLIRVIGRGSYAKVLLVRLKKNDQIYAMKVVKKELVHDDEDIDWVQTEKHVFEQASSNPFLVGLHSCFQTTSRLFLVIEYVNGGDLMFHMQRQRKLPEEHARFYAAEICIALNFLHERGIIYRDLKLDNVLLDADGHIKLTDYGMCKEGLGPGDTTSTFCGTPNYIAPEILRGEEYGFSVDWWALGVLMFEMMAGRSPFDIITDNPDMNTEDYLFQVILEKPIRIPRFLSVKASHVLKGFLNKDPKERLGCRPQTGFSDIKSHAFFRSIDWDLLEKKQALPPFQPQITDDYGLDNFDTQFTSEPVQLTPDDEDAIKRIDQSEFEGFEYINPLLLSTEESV
Described as above. The arrangement: cytoplasmic extracts from different cell lines expressing appropriate PKC isoforms; endogenous in cells; host or cells: MDAMB231, LnCAP, Du145, H661, CCD16Lu (human, from ATCC); key: —: no detectable affinity; Low to very low affinity at 10X or 20X or both PRE concentrations in at least one cell line in the cell extract assay; Low affinity in purified isoform assay.; Moderate affinity at 10X or 20X or both PRE concentrations in at least one cell line in the cell extract assay.; High affinity at 10X or 20X or both PRE concentrations in at least one cell line in the cell extract assay; High affinity in purified isoform assay. Conditions: Cell extract; PRE at 10X, 20X antibody concentration; Table 20. The method, then:
as §1, §2, §3

Setting [2] is: 2.5 mg/ml, 24 h, with pinocytic endocytosis reagent.
The mark [3] stands for this setting: 2.5 mg/ml, 48 h, with pinocytic endocytosis reagent.
[4] abbreviates: 2.5 mg/ml, 72 h, with pinocytic endocytosis reagent.
Where [5] appears, read: 10 mg/ml, 24 h, with pinocytic endocytosis reagent.
Where [6] appears, read: 10 mg/ml, 48 h, with pinocytic endocytosis reagent.
Where [7] appears, read: 10 mg/ml, 72 h, with pinocytic endocytosis reagent.

Turning to “Ac-KDAQNLIGISI-NH2 [PRE 4, Ac-KDAQNLIGISI-NH2]”, the “AFI (Average fluorescence intensity)” value stood at 179 in data set [1] (setting [2]); 240 in data set [1] (setting [3]); 777 in data set [1] (setting [4]); 173 in data set [1] (setting [5]); 247 in data set [1] (setting [6]); 809 in data set [1] (setting [7]). Also, the “Affinity for PKC isoform ι” value on PKC-ι is reported as “M/L”. The “Affinity for PKC isoform ζ” value on PKC-ζ is recorded as “—”.
Consider Ac-isigilgnadk-NH2 [PRE 9], for which the “Affinity for PKC isoform ζ” value with PKC-ζ is recorded as “M/L”.
On to Ac-ISIGILQNADK-NH2 [PRE 7], for which the “Affinity for PKC isoform ι” value with PKC-ι is “—”. For the same substance, the “Affinity for PKC isoform ζ” value with PKC-ζ is on record as “—”.
Take Ac-ISIGILNQADK-NH2 [PRE 10]: in the data set with PKC-ζ, the “Affinity for PKC isoform ζ” value was “M/L”.
Same read-out and setting: next, Ac-RDAQNLIGISI-NH2 [PRE 11]: “—”.
For Ac-KDANQLIGISI-NH2 [PRE 6], in the data set with PKC-ι, the “Affinity for PKC isoform ι” value was “—”. Besides, in the data set with PKC-ζ, the “Affinity for PKC isoform ζ” value is listed as “—”.
Consider RRKKGGKDFVVKR [PRE 1], for which the “Affinity for PKC isoform ι” value in the data set with PKC-ι is “—”. Also, the “Affinity for PKC isoform ζ” value in the data set with PKC-ζ is “L”.
As for Ac-AKGIQEVKGGDAQNLIGISI-NH2 [PRE 3], the “AFI (Average fluorescence intensity)” value in data set [1] (setting [2]) stood at 193; in data set [1] (setting [3]), 389; in data set [1] (setting [4]), 871; in data set [1] (setting [5]) it was 182; in data set [1] (setting [6]), 334; in data set [1] (setting [7]) it was 830. In addition, at PKC-ι, the “Affinity for PKC isoform ι” value is listed as “L”. Further, on PKC-ζ, the “Affinity for PKC isoform ζ” value was “—”.
As to Ac-AKGIQEVKGGKDAQNLIGISI-NH2 [PRE 5], the “AFI (Average fluorescence intensity)” value in data set [1] (62.5 μg/ml, 24 h, 3000 cells/100 μl/well, Table 13) amounted to 717; in data set [1] (62.5 μg/ml, 48 h, Table 13), 1084; in data set [1] (62.5 μg/ml, 72 h, Table 13), 1290; in data set [1] (125 μg/ml, 24 h, Table 13), 593; in data set [1] (125 μg/ml, 48 h, Table 13), 991; in data set [1] (125 μg/ml, 72 h, Table 13) it was 1200. Besides, the “AFI (Average fluorescence intensity)” value in data set [1] (250 μg/ml, 24 h, Table 13) is on record as 557; in data set [1] (250 μg/ml, 48 h, Table 13), 899; in data set [1] (250 μg/ml, 72 h, Table 13) it was 1150; in data set [1] (500 μg/ml, 24 h, Table 13) it was 492; in data set [1] (500 μg/ml, 48 h, Table 13), 891; in data set [1] (500 μg/ml, 72 h, Table 13), 1082. Also, on PKC-ζ, the “Affinity for PKC isoform ζ” value is “L/H”.
As to Ac-RDAQNLI-NH2 [PRE 13], in the data set with PKC-ι, the “Affinity for PKC isoform ι” value is on record as “—”. Moreover, the “Affinity for PKC isoform ζ” value with PKC-ζ was “—”.
For Ac-KDAQNLI-NH2 [PRE 12], in the data set with PKC-ι, the “Affinity for PKC isoform ι” value was “—”. In addition, the “Affinity for PKC isoform ζ” value with PKC-ζ was “M/H”.

For the origin of these results see patent US20100041597A1, “PEPTIDES TARGETED TO PROTEIN KINASE C ISOFORMS AND USES THEREOF” (priority 2005, published 2010).
